This note sets out measurements from patent US5242942A, “Anticonvulsant fructopyranose cyclic sulfites and sulfates” (McNeilab, Inc., priority 1992, dated 1993).

Each structure is given as a SMILES string.

One data set in a line: rat diuresis study. It counts as in vivo, rat (male Wistar). The conditions noted are these: 6.3 mg/kg PO, average of five animals. An excerpt:
Evidence for the inhibition of carbonic anhydrase by compounds of the formula (I) can also be obtained by a diuresis study, such as described by A. Weiner in Goodman and Gilman's The Pharmacological Basis of Therapeutics, 8th ed.; Goodman Gilman, A.; Rall, T. W.; Nies, A. S.; Taylor, P., Eds.; Pergamon Press: New York, 1990; pp 716-718. An increase in urine akalinity accompanied with an increase in water intake and urine output provides an indirect indication of carbonic anhydrase inhibition activity. Male Wistar rats having a weight of 250-300 g were dosed orally (PO) and housed in cages that allowed for the quantitative measure of fluid intake and urine output. Water intake and urine output were measured at 24 hours versus control, whereas urine pH, obtained via pH meter, was measured at 4 and 24 hours versus control. The results of this study, which are the average of five animals, are reported below in Table III. […] Such data is also an indication of the usefulness of the compounds of formula (I) as diuretics in the treatment of hypertension, congestive heart failure and other types of edema. The determination of suitable dosages for such compounds for the treatment of hypertension and congestive heart failure and other types of edema is within the skill of the art.

The next data set relates to carbonic anhydrase. Briefly: carbonic anhydrase inhibition, 18O-exchange mass spectrometry, disrupted hepatocytes. The conditions noted are these: 250 μM, disrupted male rat hepatocytes, 37° C., pH 7.4, 25 mM aqueous NaHCO3. The class given is biochemical. As for the experimental part: Compounds of formula (I) are also inhibitors of carbonic anhydrase, and as such, are useful in the treatment of glaucoma. Such activity may be determined by mass spectrometry using the ^18 O-exchange technique described by Dodgson and Forster in J. Appl. Physiol. 1983, 55, 1293. Specifically, this assay was conducted by first killing the male rats and then removing their livers. Their livers were placed in a cold physiological saline solution. The liver tissue was then minced with scissors and shaken in a protolytic enzyme solution to promote disassociation of the hepatocytes. The dissociated hepatocytes were then washed in a cold saline solution and used for determination of carbonic anhydrase activity.
[…] The continuous readout of the mass 44 peak gives a continuous record of the constancy of the pH of the reaction medium since the height of the mass 44 peak is very sensitive to pH. The pH of the medium was read from the pH meter and used to calibrate the mass 44 peaks at regular intervals.
An 8 mL glass chamber, with openings for a pH electrode and sample insertion, was used for continuous mass spectrophotometric measurement of C^16 O^16 O (mass 44) and C^16 O^18 O (mass 46) dissolved in aqueous bicarbonate buffer. […] The pH was constantly monitored by a combination glass pH electrode (Radiometer model gK 2641C). […]

With `CC1(C)O[C@H]2[C@@H]3OS(=O)(=O)O[C@@H]3CO[C@@]2(COS(N)(=O)=O)O1` [Example 1, 2,3-O-(1-Methylethylidene)-4,5-O-sulfonyl-β-D-fructopyranose Sulfamate], the “Urine pH” value is 8.99 in “rat diuresis study” (4 hours, control 6.98) and 7.03 in the data set “rat diuresis study” (24 hours, control 6.43). For the same compound, in the data set “rat diuresis study” (24 hours, control 15.0), the “Water Intake” value worked out at 24.0 mL. The “Urine Output” value in the data set “rat diuresis study” (24 hours, control 17.6) is 28.3 mL. For the same compound, the “inhibition of all hepatocyte carbonic anhydrase” value in the data set with carbonic anhydrase is reported as “Maximal inhibition”.
